# Experimental data published in BindingDB's records for doi:10.1016/j.bmcl.2006.12.028 (Sapienza University of Rome, 2007).
# Key:
# [1] = target: T1, Histone deacetylase 2b (Zea mays, UniProt Q94F81); assay: Inhibition of maize HD2 (mean)
# T1 sequence (Q94F81 whole entry): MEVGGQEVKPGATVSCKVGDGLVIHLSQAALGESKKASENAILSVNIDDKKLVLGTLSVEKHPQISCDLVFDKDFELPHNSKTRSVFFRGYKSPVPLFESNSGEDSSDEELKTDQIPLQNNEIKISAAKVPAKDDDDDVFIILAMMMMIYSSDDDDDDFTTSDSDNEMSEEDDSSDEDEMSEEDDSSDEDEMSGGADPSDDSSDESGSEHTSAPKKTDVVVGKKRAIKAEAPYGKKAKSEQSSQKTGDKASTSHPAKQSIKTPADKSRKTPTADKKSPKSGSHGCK
# [2] = target: Histone deacetylase (Zea mays, UniProt Q9ZTP8); assay: Inhibition of maize HD1-B (mean)
# [3] = target: Histone deacetylase 1 (Mus musculus, UniProt O09106); assay: Inhibition of mouse HDAC1 (mean)
# [4] = target: Histone deacetylase HD1-A (Zea mays); assay: Inhibition of maize HD1-A (mean)
# Sequence of Histone deacetylase (Q9ZTP8 whole entry): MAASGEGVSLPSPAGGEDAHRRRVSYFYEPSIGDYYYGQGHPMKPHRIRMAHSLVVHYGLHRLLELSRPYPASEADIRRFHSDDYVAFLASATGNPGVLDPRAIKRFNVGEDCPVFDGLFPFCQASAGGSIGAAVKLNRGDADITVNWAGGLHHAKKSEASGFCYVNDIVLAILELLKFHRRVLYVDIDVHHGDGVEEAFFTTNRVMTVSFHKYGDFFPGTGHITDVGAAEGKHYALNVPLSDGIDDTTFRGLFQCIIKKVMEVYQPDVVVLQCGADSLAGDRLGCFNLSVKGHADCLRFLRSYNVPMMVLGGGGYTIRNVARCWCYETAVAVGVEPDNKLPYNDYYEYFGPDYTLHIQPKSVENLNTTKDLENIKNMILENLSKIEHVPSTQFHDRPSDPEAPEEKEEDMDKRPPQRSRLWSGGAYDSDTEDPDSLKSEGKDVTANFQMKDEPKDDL
# Sequence of Histone deacetylase 1 (O09106 whole entry): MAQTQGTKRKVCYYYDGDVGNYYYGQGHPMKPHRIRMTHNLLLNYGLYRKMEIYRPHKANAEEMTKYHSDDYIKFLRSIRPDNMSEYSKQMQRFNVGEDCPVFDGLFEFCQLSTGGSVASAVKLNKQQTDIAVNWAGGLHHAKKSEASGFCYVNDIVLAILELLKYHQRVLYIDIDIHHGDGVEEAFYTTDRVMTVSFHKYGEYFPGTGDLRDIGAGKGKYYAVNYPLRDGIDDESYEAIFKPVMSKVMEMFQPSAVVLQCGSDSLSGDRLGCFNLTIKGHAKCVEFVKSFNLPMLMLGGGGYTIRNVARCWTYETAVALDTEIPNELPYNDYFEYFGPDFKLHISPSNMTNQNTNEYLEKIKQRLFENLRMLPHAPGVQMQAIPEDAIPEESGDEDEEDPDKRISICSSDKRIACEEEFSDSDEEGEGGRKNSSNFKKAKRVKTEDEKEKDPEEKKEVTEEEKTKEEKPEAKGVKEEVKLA
IC50 [1],IC50 [2],IC50 [3],IC50 [4],Compound
17 nM,11.3 nM,36.7 nM,–,O=C(CCCCSc1nc(-c2cccc(Cl)c2)cc(=O)[nH]1)NO
17 nM,11.3 nM,50.9 nM,2.83 nM,O=C(CCCCSc1nc(-c2ccc(Cl)cc2)cc(=O)[nH]1)NO
49.2 nM,–,–,–,O=C(CCCCCCC(=O)Nc1ccccc1)NO [Zolinza]
